Source: patent publication US20110256121A1, “METHODS AND KITS FOR DIAGNOSING OR MONITORING AUTOIMMUNE AND CHRONIC INFLAMMATORY DISEASES” (THE REGENTS OF THE UNIVERSITY OF MICHIGAN, priority 2008, published 2011)

How the values were obtained:
T cell gene expression = assay: Microarray detection of KIR expression in 5-azaC treated T cells; assay type: cell-based, human
Procedure: T cell purification and culture. Peripheral blood mononuclear cells (PBMC) were isolated from healthy donors by density gradient centrifugation, stimulated for 18 hours with 1 μg/mlphytohemagglutinin (PHA) (Murex, Norcross, Ga.), then treated or not with 5 μm 5-azacytidine (5-azaC, Sigma, St. Louis, Mo.) for 72 hours as described (6). Total T cells, CD4^+ T cells or CD8′ T cells then were purified using the pan T cell isolation kit II or the CD4^+ and CD8^+ T cell isolation kit II from Miltenyi (Auburn, Calif.). T cells were typically >94% CD3^+ by flow cytometry. Jurkat cells (E6-1) were maintained in culture as described (11). This protocol was approved by the University of Michigan Institutional Review Board.
Microarray analysis. RNA from 5-azaC treated and untreated T cells was analyzed with HG-U133A arrays (Affymetrix, Santa Clara Calif.), containing 22283 probe-sets representing ˜13000 distinct genes, as described (6). Probe-set intensities were obtained and normalized as described (12). Two-sample T-tests were used to compare groups, and fold-changes were determined using the ratio of the group means, after replacing means of less than 50 with 50. The array data are available from NCBI's Gene Expression Omnibus using series accession number GSE6008.
Microarray detection of KIR expression in 5-azaC treated T cells. Effects of DNA methylation inhibition on T cell gene expression were tested by stimulating PBMC from healthy donors with PHA, treating with 5-azaC, and comparing gene expression patterns in treated and untreated T cells with microarrays. 682 probe-sets were obtained giving p<0.01, out of a total of 22283 probe-sets, so that approximately 223 of the 682 probe-sets were expected to be false-positives. Further demanding at least a 1.5 fold difference in the means of treated and untreated groups reduced the list to 250 probe-sets, 6 of which were KIR genes (KIR2DL1 5.7 fold p=0.003, KIR3DL1 5.7 fold p=0.001, KIR2DL2 4.2 fold p=0.0005, KIR2DS4 2.8 fold p=0.009, KIR2DL3 2.3 fold p=0.004, and KIR2DL4 1.7 fold p=0.008), out of a total of 12 KIR genes on the array, indicating enrichment of this gene family (FIG. 24).

Sp1 = Sp1 quantitation in nuclear extracts of T cells; assay type: cell-based, human; settings: PHA-stimulated T cells, 5-azaC 72 h
KIR2DL4 promoter = KIR2DL4 promoter reporter construct assay in T cells; assay type: cell-based, human
Procedure: Reporter construct assays. Amplified KIR promoter fragments were subcloned into the EcoRI site of the promoterless pmaxFP-Yellow-PRL vector (Amaxa GmbH). Plasmids were purified using QIAGEN EndoFree Plasmid Kits (QIAGEN), and 2 μg of DNA transfected into untreated or 5-azaC treated human T cells using the human T cell nucleofector kit (Amaxa GmbH) and the manufacturer's protocol. Controls included cotransfection with pmaxGFP (Amaxa GmbH) and transfection with the promoterless reporter vector. Fluorescence was measured by flow cytometry. Site directed mutagenesis. Mutations were introduced into the same pmaxFP-Yellow-PRL KIR2DL2 and KIR2DL4 promoter constructs using the QuickChange Multi Site-Directed Mutagenesis Kit (Stratagene, La Jolla, Calif.). The changes include a […]→[…] mutation at −78→−71 in the Sp1 site, a CCC→ACA mutation at −61→−59 in the Ets1 site, or both, in the KIR2DL2 promoter, and a TTT→GGG mutation at −73→−71 in the Ets1 site, a CCC→ACA mutation at −61→−59 in the Ets1 site, or both, in the KIR2DL4 promoter. A separate G→A mutation in the AML site was also introduced into both promoters at −98 (16; 17). The constructs were transfected in to PHA stimulated, 5-azaC treated T cells as above. Controls included transfection with pmaxGFP.
Effects of 5-azaC on KIR transcriptional activator-DNA interactions. […]

KIR3DL1 = target: T1, KIR3DL1 (Homo sapiens, UniProt P43629); assay: Macrophage killing assay with 5-azaC treated T cells, 51Cr release; assay type: cell-based; settings: 18 hrs
T1 construct: endogenous in cells; host or cells: primary T cells of healthy donors, PHA-stimulated and 5-azaC treated, with autologous monocytes/macrophages
T1 sequence (P43629 22-444): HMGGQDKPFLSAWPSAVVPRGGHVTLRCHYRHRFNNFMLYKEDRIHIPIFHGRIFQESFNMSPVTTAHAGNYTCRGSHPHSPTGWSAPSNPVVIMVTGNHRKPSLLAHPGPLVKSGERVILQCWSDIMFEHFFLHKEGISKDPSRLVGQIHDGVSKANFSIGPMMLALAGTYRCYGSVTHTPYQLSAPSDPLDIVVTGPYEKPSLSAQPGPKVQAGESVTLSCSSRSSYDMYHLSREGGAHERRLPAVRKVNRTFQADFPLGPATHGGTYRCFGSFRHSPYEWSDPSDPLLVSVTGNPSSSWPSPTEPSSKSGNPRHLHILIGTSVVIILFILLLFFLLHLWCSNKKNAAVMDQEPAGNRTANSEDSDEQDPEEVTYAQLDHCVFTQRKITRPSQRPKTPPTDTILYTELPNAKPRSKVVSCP

Compound: Nc1ncn([C@@H]2O[C@H](CO)[C@@H](O)[C@H]2O)c(=O)n1 [5-azaC, 5-azacytidine]
- KIR2DL2 expression, treated vs untreated (T cell gene expression; PHA-stimulated, p=0.0005): 4.2 fold
- KIR3DL1 expression, treated vs untreated (T cell gene expression; PHA-stimulated, p=0.001): 5.7 fold
- KIR2DL1 expression, treated vs untreated (T cell gene expression; PHA-stimulated, p=0.003): 5.7 fold
- KIR2DL3 expression, treated vs untreated (T cell gene expression; PHA-stimulated, p=0.004): 2.3 fold
- KIR2DL4 expression, treated vs untreated (T cell gene expression; PHA-stimulated, p=0.008): 1.7 fold
- KIR2DS4 expression, treated vs untreated (T cell gene expression; PHA-stimulated, p=0.009): 2.8 fold
- KIR2DS1 expression increase (T cell gene expression; not statistically significant): > 1.5 fold
- KIR2DS3 expression increase (T cell gene expression; not statistically significant): > 1.5 fold
- KIR3DL2 expression increase (T cell gene expression; not statistically significant): > 1.5 fold
- activated Sp1 levels (Sp1): increases activated Sp1 levels
- increase of KIR2DL4 promoter function (KIR2DL4 promoter; 5-azaC treated vs untreated T cells, FIG. 29b, p<0.005): 3-4 fold
- increase of expression of the unmodified KIR2DL4 construct (KIR2DL4 promoter; relative to untreated T cells, FIG. 29c): ~3 fold
- killing of autologous Mo by demethylated (5-azaC treated) T cells (KIR3DL1): spontaneously kill autologous Mo
